These are literature values, as cited in US20130121964A1, “Pharmacogenomic and Response-Guided Treatment of Infectious Disease Using Yeast-Based Immunotherapy” (GLOBEIMMUNE, INC., priority 2010, published 2013).

The conditions of series [1]: in vivo.

With `NC(=O)c1ncn([C@@H]2O[C@H](CO)[C@@H](O)[C@H]2O)n1` [Ribavirin, 1-(beta)-D-ribofuranosyl-1H-1,2,4-triazole-3-carboxamide], the “patients with hemolytic anemia” value in series [1] was 20-30%. Besides, for the setting “anhydrous alcohol”, the “solubility in anhydrous alcohol” value was “slightly soluble”. The solubility in water result (water) is listed as “freely soluble”.
